Results: ChEMBL document CHEMBL3243946, “A comparison of the antiserotonin, antihistamine, and anticholinergic activity of cyproheptadine with analogues having furan nuclei fused to the 10,11-vinylene bridge” (1977)
Activity calls are given as the source filed them. No cut-off for these calls is given here.

How the values were obtained:
Mus musculus [1] = assay: Anticholinergic activity in Carworth CF1 mouse assessed as dose required to produce pupil dilation to 1.5 micrometer units in 50% mouse at 324 mg/kg, ip; format: functional, organism-based; set-up: dose 324 mg/kg
Cavia porcellus [2] = assay: Antihistamine activity in Duncan-Hartley guinea pig assessed as protection of animal from death caused by histamine aerosol-induced bronchoconstriction at 12.5 mg/kg, ip; format: functional, organism-based; set-up: dose 12.5 mg/kg
Rattus norvegicus [3] = assay: Antiserotonin activity in Sprague-Dawley rat assessed as inhibition of feet weight gain at 10 mg/kg, sc after 30 mins; format: functional, organism-based; set-up: dose 10 mg/kg
Cavia porcellus [4] = species: Cavia porcellus; assay: animal or person; format: functional; details: Duncan-Hartley, ip
Description: Antihistamine activity in ip dosed Duncan-Hartley guinea pig assessed as protection of animal from death caused by histamine aerosol-induced bronchoconstriction

Mus musculus [5] = assay: Anticholinergic activity in ip dosed Carworth CF1 mouse assessed as dose required to produce pupil dilation to 1.5 micrometer units in 50% mouse; format: functional
Rattus norvegicus [6] = assay: Antiserotonin activity in sc dosed Sprague-Dawley rat assessed as inhibition of feet weight gain after 30 mins; details: 0.5 h
Mus musculus [7] = assay: Anticholinergic activity in ip dosed Carworth CF1 mouse assessed as pupil dilation to 15 micrometer units in 100% mouse; format: functional

Row | Structure (SMILES) | inhibition (Mus musculus [1]) | inhibition (Cavia porcellus [2]) | inhibition (Rattus norvegicus [3]) | ED50 (Cavia porcellus [4]) | ED (Mus musculus [5]) | ED50 (Rattus norvegicus [6]) | ED (Mus musculus [7])
1 | C1=CC2OC1C1=C2c2ccccc2C(=C2CCNCC2)c2ccccc21 | inactive | inactive | inactive | – | – | – | –
2 | CN1CCC(=C2c3ccccc3C(CO)=C(CO)c3ccccc32)CC1 | – | – | inactive | 12.5 mg/kg | 4 mg/kg | – | –
3 | CN1CCC(=C2c3ccccc3C3=C(c4ccccc42)C2CCC3O2)CC1 | inactive | inactive | inactive | – | – | – | –
4 | CN1CCC(=C2c3ccccc3C=Cc3ccccc32)CC1.Cl [CYPROHEPTADINE HYDROCHLORIDE] | – | – | – | 0.05 mg/kg | 4 mg/kg | 0.02 mg/kg | –
5 | CN1CCC(=C2c3ccccc3C3=C(c4ccccc42)C2(C)C=CC3O2)CC1 (stereo not drawn) | inactive | inactive | inactive | – | – | – | –
6 | CN1CCC(=C2c3ccccc3C3=C(c4ccccc42)C2C=CC3O2)CC1 | inactive | inactive | inactive | – | – | – | –
7 | CN1CCC(=C2c3ccccc3C3=C(C(=O)OC3)c3ccccc32)CC1.O=C(O)C(=O)O | – | – | inactive | 9.7 mg/kg | – | – | <4 mg/kg
8 | CN1CCC(=C2c3ccccc3C3COCC3c3ccccc32)CC1 (stereo not drawn) | inactive | inactive | inactive | – | – | – | –
9 | c1ccc2c(c1)C(=C1CCNCC1)c1ccccc1-c1cocc1-2 | inactive | inactive | inactive | – | – | – | –
10 | Cc1occ2c1-c1ccccc1C(=C1CCN(C)CC1)c1ccccc1-2 | – | inactive | inactive | – | 4 mg/kg | – | –
11 | CN1CCC(=C2c3ccccc3-c3cocc3-c3ccccc32)CC1 | – | inactive | inactive | – | 36 mg/kg | – | –
